Measured values published in patent US11154519B2, “Inhibitors and their uses” (MEDICAL RESEARCH COUNCIL, priority 2015, dated 2021).

Tests used:
[1] = system: HeLa cells; assay: Cytoprotection against ER stress (tunicamycin), IncuCyte; format: cell-based; settings: Homo sapiens, 250 ng/ml Tunicamycin, 72 hours, compound 0-20 μM, read-out: Cytoprotection from Tm (compared to GNB)
Experimental: (§1) HeLa cells (40,000 cells/ml) were plated in a 96-well plate and treated with different concentrations (0-20 μM) of a compound as indicated in the presence of 250 ng/ml Tunicamycin for 72 hours. To monitor cell death 1/2000 dilution of the CellTox green dye (Promega) was added to the media. The growth of the cells was monitored over time and pictures taken every 2 hours with the IncuCyte ZOOM system and analysed by the IncuCyte ZOOM software (Essen BioScience). […] Cytoprotection against ER stress can be measured by a suitable assay. In this instance, cytoprotection was measured in HeLa cells in which ER stress was elicited by the addition of media containing tunicamycin, a drug that blocks N-glycosylation, thereby preventing protein folding and inducing the unfolded protein response. Cell viability was then detected in the presence and absence of a compound listed in Table 1 after a set period of time, by monitoring cell growth over time. Cytoprotection from ER stress was measured in terms of the percentage increase in viable cells (relative to control) after ER stress.

[2] = system: HeLa cells; assay: Cell death dose response (CellTox green, IncuCyte); format: cell-based; settings: for Effect on cell death: IncuCyte, 0-20 μM
Experimental: Toxicity of the compounds is assessed using Cell viability Counting Kit-8 (Dojindo) or in a Incucyte (Essenbioscience) using both phase contrast and IncuCyte™ Cytotox Green Reagent.
as §1
EC50 were extrapolated from dose response experiments on cell death. Data from IncuCyte was plotted and analysed in Prism. The “% of cell death” for each data point. For each concentration there is a % of cell death vs time, the area under the curve was taken and plotted against log conc=>EC50 (analysis in Prism).

[3] = system: R15A or R15B; assay: Selective binding towards R15A or R15B (based on SPR); design: species or system human
Experimental: In one embodiment, the compounds of formula IB inhibit PPP1R15A and PPP1R15B. Inhibition of PPP1R15A and PPP1R15B can be determined from binding analysis. For example, binding can be analysed using SPR (surface plasmon resonance) to obtain KD values. A PPP1R15A and PPP1R15B inhibitor may be defined as a compound where the difference in KD values between R15A and R15B is no more than about 3 fold.
Small molecules were stored as 50 mM stock solutions in 100% DMSO. Prior to determining binding constants, serial dilutions of either 12 or 8 concentrations of the compounds were prepared in the running buffer in a 96-well plate. Prior to each compound dilution series the regulatory subunit, MBP-R15A^325-636-His or MBP-R15B^340-698-His, was diluted to 10 μM in the running buffer and captured on the bio-PP1c surface at a flow rate of 30 μl/min for 1 minute to form the holophosphatase complex on the sensor chip surface. This was followed by 1 minute stabilization period, to wash off any unspecific binding. Then, without regenerating the surface, the compound dilution series was injected onto the surface of the chip at a flow rate of 30 μl/min for 1 minute, followed by 2 minutes dissociation time. After each dilution series the surface was regenerated using 3 M NaCl for 90 seconds. After regeneration, SPR responses generally returned to base levels and the bio-PP1c surface was ready for the next compound dilution series. In order to be able to correct for small variations in DMSO concentration between samples, eight solvent samples ranging from 0.06 to 8% DMSO were injected every 50th cycle. The flow cell temperature was 10° C.
Sensorgrams were analyzed using the Biacore T200 evaluation software and the binding constants determined based on a steady-state model. Kinetic experiments are carried out using different concentrations of the compound and their respective equilibrium binding levels determined.

[4] = biological target: T1, PPP1R15B-PP1 (Homo sapiens, UniProt Q5SWA1); assay: SPR steady-state binding to R15B-PP1 holophosphatase; settings: SPR steady-state, MBP-R15B340-698-His captured on bio-PP1c, 10° C.; read-out: R15B (KD)
T1 construct: cDNAs encoding amino acids 325-636 of PPP1R15A and 340-698 of PPP1R15B were His-tagged and cloned into pMAL-c5x; made in house; host or cells: R15B: E. coli BL21-Gold (pMAL-c5x); PP1γ: Sf9 insect cells (baculovirus, pDW464)
Experimental: (§2) PPP1R15A^325-636 and PPP1R15B^340-698 were expressed and purified as follows: the cDNAs encoding amino acids 325-636 of PPP1R15A and 340-698 of PPP1R15B were His-tagged and cloned into pMAL-c5x. Recombinant PPP1R15A/B were expressed in BL21-Gold cells and purified by affinity chromatography on a HisTrap HP column (GE Healthcare), followed by a MBPTrap HP column (GE Healthcare). The proteins were analyzed on BOLT SDS-PAGE 4-12% Bis-Tris gels (Life Technologies) stained with SimplyBlue SafeStain (Life Technologies). cDNA encoding for human PP1γ was cloned into the baculovirus transfer vector pDW464 to add a biotin acceptor peptide (BAP). The vector also encodes for the E. coli biotin holoenzyme synthetase (BirA), so that BAP-tagged proteins can be biotinylated in vivo in Spodoptere frugiperda (Sf9) insect cells (Duffy et al., Anal. Biochem., 262, 122-128, 1998). The Bac-to-Bac baculovirus expression system (Life Technologies) was used to generate the recombinant bacmid DNA and Sf9 insect cells were used to amplify the viral stocks Cultures were harvested by centrifuging at 1,200 g for 15 minutes, cell pellets were resuspended in lysis buffer (50 mM Tris pH 7.4, 150 mM NaCl, 0.2% Triton, 5% Glycerol, 1 PiC tablet (Roche) per 50 ml and 0.2 mM PMSF) and followed by gentle sonication. The protein was first purified on a 5 ml HiTrap Q HP column (GE Healthcare) followed by a HiLoad 16/600 Superdex 200 column (GE Healthcare). The positive fractions confirmed by SDS-PAGE and western blot were pooled, concentrate to ˜1 μM and stored at −80° C.
(§3) A Biacore T200 (GE Healthcare) system was used for all experiments and biotinylated PP1 was captured using a Sensor Chip SA (GE Healthcare, catalog no BR-1005-31). The streptavidin coated surface was activated by 1 min injection with a solution of 50 mM NaOH and 1 M NaCl. Biotin-PP1 was diluted in the running buffer (50 mM Tris pH 7.5, 100 mM NaCl, 0.1 mM EGTA, 1 mM MnCl2, 0.05% Tween 20) and injected at approximately 300 nM concentration directly to streptavidin coated surface for 100 sec or to reach immobilization level of biotin-PP1 corresponding to ˜7000 RU. A blank immobilization was performed for one of the SA sensor chip surface to use as a reference.
(§4) With minor deviations, the same procedure and conditions were used in all binding experiments. Small molecules were stored as 50 mM stock solutions in 100% DMSO. Prior to determining binding constants, serial dilutions of either 12 or 8 concentrations of the compounds were prepared in the running buffer in a 96-well plate. Prior to each compound dilution series the regulatory subunit, R15A or R15B, was diluted to […] in the running buffer and captured on the biotin-PP1 surface, to form the holophosphatase complex on the sensor chip surface. Then, without regenerating the surface, the compound dilution series was injected onto the surface of the chip Sensorgrams were analyzed using the Biacore T200 evaluation software and the binding constants determined based on a steady-state model. Kinetic experiments are carried out using different concentrations of the compound and their respective equilibrium binding levels determined.
(§5) Surface Plasmon Resonance (SPR) was used to measure the binding affinity of compounds to the PPP1R15A/B-PP1 phosphatase complex. Biotin acceptor peptide (BAP) was fused to the N-terminus of PP1γ, which enables the biotinylation of the BAP-tagged protein in Sf9 insect cells. After purification the BAP-PP1γ protein was captured on a streptavidin sensor chip (SA-chip, GE healthcare) to a response level of ˜5.000 RU. Using controlled biotinylation enables orientated and uniform immobilization on the sensor chip surface. The PP1γ was then used to capture PPP1R15A/B and form a holophosphatase complex on the surface of the streptavidin chip. This complex can then be used to test binding of compounds. 10 μM PPP1R15A/B protein concentration was used to form the holophosphatase complex during a 80 s injection. […]

[5] = biological target: T2, PPP1R15A-PP1 complex (Homo sapiens, UniProt O75807); assay: SPR steady-state binding to R15A-PP1 holophosphatase; settings: SPR steady-state, MBP-R15A325-636-His captured on bio-PP1c, 10° C.; read-out: R15A (KD)
T2 construct: cDNAs encoding amino acids 325-636 of PPP1R15A and 340-698 of PPP1R15B were His-tagged and cloned into pMAL-c5x; made in house; host or cells: R15A: E. coli BL21-Gold (pMAL-c5x); PP1γ: Sf9 insect cells (baculovirus, pDW464)
Experimental: as §2, §3, §4, §5

[6] = biological target: T3, PP1 (Homo sapiens, UniProt P36873); assay: SPR binding to PP1 alone; settings: SPR steady-state, bio-PP1c surface
T3 construct: made in house; host or cells: Sf9 insect cells (baculovirus, pDW464)

[7] = system: protein synthesis; assay: Assessment of translation rates (35S-methionine labelling); format: cell-based
Experimental: Cells (90,000 cells/ml) were plated in 12-well plates, treated as indicated, labelled with 100 μCi/mI 35S-methionine (Hartmann Analytic) for 10 minutes at 37° C., washed with ice-cold PBS and lysed in 120 μl Laemmli Buffer. Lysates were boiled at 95° C. for 5 minutes, sonicated and resolved on 4-12% Bolt Bis-Tris Plus Gels (Thermo Fisher Scientific). Gels were then stained with InstantBlue (Expedeon) and analyzed by phosphorimaging and quantified using ImageJ.
By monitoring translation rates as described above, the activities of R15A, R15B and R15A/B inhibitors can be defined as follows (also shown in FIG. 12). An R15A inhibitor has no effect on translation in unstressed cells but prolongs translation attenuation following stress. A selective R15B inhibitor transiently attenuate protein synthesis because R15A compensates for the inhibition of R15B.

[8] = system: protein synthesis; settings: unstressed cells; Tsaytler et al., Science 2011; cited from earlier work
[9] = system: mice; assay: Side effects of Guanabenz: activity of mice after dosing; format: in vivo; settings: 10 mg/kg oral gavage
Experimental: To assess whether of a compound of Example 1 had the side effects of Guanabenz, mice (n>3) were gavaged orally with 10 mg/kg of compound or Guanabenz. Their activity was monitored 30 minutes following dosing.
In humans, the adrenergic agonist activity of Guanabenz has side effects including drowsiness and coma at high doses (A. H. Hall, Ann Intern Med 102; 787-788; 1985). Due to of these side effects, Guanabenz is no longer used in human. It is anticipated that Guanabenz derivatives have the side effects of Guanabenz, associated with alpha-2 adrenergic activity.

T1 sequence (Q5SWA1 340-698): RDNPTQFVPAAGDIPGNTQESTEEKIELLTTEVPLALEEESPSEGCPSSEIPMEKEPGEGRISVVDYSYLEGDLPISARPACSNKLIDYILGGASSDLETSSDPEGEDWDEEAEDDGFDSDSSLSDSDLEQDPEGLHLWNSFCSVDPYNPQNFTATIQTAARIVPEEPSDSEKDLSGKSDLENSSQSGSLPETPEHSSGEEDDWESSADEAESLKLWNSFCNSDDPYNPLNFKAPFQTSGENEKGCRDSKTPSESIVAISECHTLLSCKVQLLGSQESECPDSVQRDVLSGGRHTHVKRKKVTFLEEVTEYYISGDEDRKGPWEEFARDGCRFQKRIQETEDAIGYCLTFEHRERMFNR
T1 sequence (P36873 whole entry partner, the tested form may be a part): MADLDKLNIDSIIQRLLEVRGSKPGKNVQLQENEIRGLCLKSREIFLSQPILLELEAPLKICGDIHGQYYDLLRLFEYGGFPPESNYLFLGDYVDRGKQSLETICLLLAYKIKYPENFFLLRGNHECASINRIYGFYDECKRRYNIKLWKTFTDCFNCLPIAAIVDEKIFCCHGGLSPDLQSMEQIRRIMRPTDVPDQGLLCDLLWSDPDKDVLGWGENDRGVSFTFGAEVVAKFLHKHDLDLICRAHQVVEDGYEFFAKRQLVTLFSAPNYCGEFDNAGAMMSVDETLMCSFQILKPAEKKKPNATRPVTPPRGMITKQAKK
T2 sequence (O75807 325-636): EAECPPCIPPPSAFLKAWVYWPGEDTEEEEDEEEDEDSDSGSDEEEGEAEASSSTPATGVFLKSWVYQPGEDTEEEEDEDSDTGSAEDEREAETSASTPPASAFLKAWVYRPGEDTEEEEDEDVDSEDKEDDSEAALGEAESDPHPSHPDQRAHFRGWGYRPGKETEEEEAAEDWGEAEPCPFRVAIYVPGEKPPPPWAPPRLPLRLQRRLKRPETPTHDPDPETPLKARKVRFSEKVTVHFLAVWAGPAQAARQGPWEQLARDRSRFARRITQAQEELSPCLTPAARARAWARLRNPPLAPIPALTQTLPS
T2 sequence (P36873 whole entry partner, the tested form may be a part): as the sequence (P36873 whole entry partner, the tested form may be a part) above
T3 sequence (P36873 whole entry): as the sequence (P36873 whole entry partner, the tested form may be a part) above

| Compound | Emax [1] [%] | EC50 ([2]; Homo sapiens, area under % cell death vs time curve against log conc, read-out: Effect on cell death ⇒ EC50) [µM] | Effect on cell death [2] | Selective binding towards R15A or R15B (based on SPR) [3] | Kd [4] [µM] | Kd [5] [µM] | Kd [6] [µM] | Effect on translation ⇒ Inhibits ([7]; target(s) concluded to be inhibited) | Effect on translation ([7]; 35S-methionine labelling of cells) | protein synthesis [8] | protein synthesis rates ([7]; unstressed cells, 10 μM, FIG. 12) | activity of mice 30 minutes following dosing [9] |
| --- | --- | --- | --- | --- | --- | --- | --- | --- | --- | --- | --- | --- |
| [H]/N=C(\N)NN=Cc1cnc(Cl)nc1Cl [Compound 2, (E)-2-((2,4-dichloropyrimidin-5-yl)methylene)hydrazine-1-carboximidamide] | 0 | 7.71 | Yes | R15B (A “selective inhibitor” may be defined as a compound where the difference in KD values between R15A and R15B is greater than 3 fold) | 9.22 | 46.4 ± 18.3 |  |  |  |  |  |  |
| N=C(N)N/N=C/c1cc(Cl)c(Cl)cc1Cl [Compound 4, (E)-2-(2,4,5-trichlorobenzylidene)hydrazine-1-carboximidamide] | 80 |  | No | R15AB (A PPP1R15A and PPP1R15B inhibitor may be defined as a compound where the difference in KD values between R15A and R15B is no more than about 3 fold) | 0.022 ± 0.02 | 0.457 ± 0.13 | 332 |  |  |  |  |  |
| [H]/N=C(\N)NN=Cc1cccc(F)c1Cl [Compound 25, (E)-2-(2-chloro-3-fluorobenzylidene)hydrazine-1-carboximidamide] | 54 |  | No | R15AB (A PPP1R15A and PPP1R15B inhibitor may be defined as a compound where the difference in KD values between R15A and R15B is no more than about 3 fold) | 9.22 ± 0.19 | 6.18 ± 3.31 | 3.65 |  |  |  |  |  |
| [H]/N=C(\N)NN=Cc1ccc(F)c(F)c1Cl [Compound 27, (E)-2-(2-chloro-3,4-difluorobenzylidene)hydrazine-1-carboximidamide] | 57 |  | No |  |  | 10.6 |  | R15AB |  |  |  |  |
| [H]/N=C(\N)NN=Cc1cc(F)c(F)cc1Cl [Compound 32, (E)-2-(2-chloro-4,5-difluorobenzylidene)hydrazine-1-carboximidamide] | 100 |  | No |  | 17.3 | 4.82 ± 0.26 |  |  | Persistent |  |  |  |
| N=C(N)N/N=C/c1c(Cl)cccc1Cl [Guanabenz, reference compound] |  |  |  |  |  |  |  |  |  | doesn't inhibit protein synthesis in untressed cells | doesn't inhibit protein synthesis in unstressed cell | did not move 30 minutes after dosing |
